24 molecules from patent US9718788B2, “Heteroaryl compounds useful as inhibitors of E1 activating enzymes” (MILLENNIUM PHARMACEUTICALS, INC., priority 2006, dated 2017) can be followed below.

A value given as a limit tells only on which side of the number the result lay.

This test deals with T1, recombinant human NAE enzyme (Homo sapiens, UniProt Q8TBC4).
T1 construct: His (N); made in house; host or cells: Sf9 insect cells (baculovirus, Bac-to-Bac)
T1 sequence (Q8TBC4 1-463): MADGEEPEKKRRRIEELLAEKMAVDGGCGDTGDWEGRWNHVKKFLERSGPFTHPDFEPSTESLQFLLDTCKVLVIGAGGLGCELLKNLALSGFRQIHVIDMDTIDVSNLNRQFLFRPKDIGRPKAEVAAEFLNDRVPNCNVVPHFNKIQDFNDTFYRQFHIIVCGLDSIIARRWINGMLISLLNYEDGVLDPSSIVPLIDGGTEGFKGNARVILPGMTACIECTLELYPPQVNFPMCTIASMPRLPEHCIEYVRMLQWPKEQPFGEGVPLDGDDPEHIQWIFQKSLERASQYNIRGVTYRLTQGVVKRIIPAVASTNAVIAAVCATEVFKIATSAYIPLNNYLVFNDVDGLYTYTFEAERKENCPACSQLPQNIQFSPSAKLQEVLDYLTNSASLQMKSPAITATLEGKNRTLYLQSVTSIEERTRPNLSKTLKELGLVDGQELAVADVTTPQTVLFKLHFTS
T1 sequence (Q13564 1-534 partner): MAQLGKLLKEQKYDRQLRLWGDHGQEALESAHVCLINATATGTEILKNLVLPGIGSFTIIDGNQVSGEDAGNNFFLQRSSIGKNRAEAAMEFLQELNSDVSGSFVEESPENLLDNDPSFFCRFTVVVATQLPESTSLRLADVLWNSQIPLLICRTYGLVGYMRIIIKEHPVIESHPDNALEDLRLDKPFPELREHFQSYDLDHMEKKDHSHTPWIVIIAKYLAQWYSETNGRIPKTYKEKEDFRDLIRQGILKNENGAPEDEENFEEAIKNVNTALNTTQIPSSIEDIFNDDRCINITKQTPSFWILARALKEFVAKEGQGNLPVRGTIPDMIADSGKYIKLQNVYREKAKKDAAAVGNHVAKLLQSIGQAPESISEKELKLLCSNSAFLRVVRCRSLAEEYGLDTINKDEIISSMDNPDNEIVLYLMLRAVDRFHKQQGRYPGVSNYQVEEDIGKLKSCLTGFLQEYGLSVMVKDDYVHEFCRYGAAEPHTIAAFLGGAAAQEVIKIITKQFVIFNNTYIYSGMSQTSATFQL
In words: Nedd8-Activating Enzyme (NAE) HTRF Assay. The test is classed as biochemical. To be noted: 20 μM ATP. The method, boiled down: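 Recombinant human NAE (NAEα/His-NAEβ from Sf9 cells) at 0.20 nM with 20 μM ATP, 0.01 μM Ubc12-GST and 0.075 μM Nedd8-Flag in HEPES pH 7.5, 105 min at 24° C. EDTA stop; Eu-anti-FLAG/APC-anti-GST HTRF read after 1 h.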

Turning to `NS(=O)(=O)OC[C@H]1C[C@@H](Nc2ccnc(C(=O)N3CCc4ccccc43)c2)[C@H](O)[C@@H]1O` [Compound I-145, ((1R,2R,3S,4R)-4-{[2-(2,3-dihydro-1H-indol-1-ylcarbonyl)pyridin-4-yl]amino}-2,3-dihydroxycyclopentyl)methyl sulfamate], where the note is “bound given in μM”, the IC50 was greater than 10 µM.
In the case of `NS(=O)(=O)OC[C@@H]1C[C@@H](Nc2ncnc3[nH]c(-c4ccccc4Oc4ccccc4)nc23)C[C@@H]1O` [Compound I-37, ((1S,2S,4R)-2-hydroxy-4-{[8-(2-phenoxyphenyl)-9H-purin-6-yl]amino}-cyclopentyl)methyl sulfamate], under “bound given in nM”, the 50% inhibitory concentration (IC50) is no more than 0.5 µM.
Turning to `NS(=O)(=O)OC[C@H]1C[C@@H](Nc2ncnc3[nH]c(-c4ccccc4)nc23)[C@H](O)[C@@H]1O` [Compound I-9, {(1R,2R,3S,4R)-2,3-dihydroxy-4-[(8-phenyl-9H-purin-6-yl)amino]cyclopentyl}-methyl sulfamate], where the note is “bound given in nM”, the IC50 was no more than 0.5 µM.
In the case of `CN(C)c1ccc(-c2nc3ncnc(O[C@@H]4C[C@@H](COS(N)(=O)=O)[C@@H](O)C4)c3[nH]2)c2ccccc12` [Compound I-103, [(1S,2S,4R)-4-({8-[4-(dimethylamino)-1-naphthyl]-7H-purin-6-yl}oxy)-2-hydroxycyclopentyl]methyl sulfamate], under “bound given in nM”, the IC50 is no more than 0.5 µM.
On the same count and under the same terms, then `NS(=O)(=O)OC[C@@H]1C[C@@H](Nc2ncnc3[nH]c(-c4ccccc4Cl)nc23)C[C@@H]1O` [Compound I-34, ((1S,2S,4R)-4-{[8-(2-chlorophenyl)-9H-purin-6-yl]amino}-2-hydroxycyclopentyl)methyl sulfamate], with no more than 0.5 µM; and `NS(=O)(=O)OC[C@@H]1C[C@@H](Oc2ncnc3[nH]c(-c4cccc5ccccc45)nc23)C[C@@H]1O` [Compound I-87, ((1S,2S,4R)-2-hydroxy-4-{[8-(1-naphthyl)-9H-purin-6-yl]oxy}cyclopentyl)methyl sulfamate], with no more than 0.5 µM; and `NS(=O)(=O)OC[C@H]1C[C@@H](Nc2cc(N[C@@H]3CCc4ccccc43)ncn2)[C@H](O)[C@@H]1O` [Compound I-8, [(1R,2R,3S,4R)-4-({6-[(1R)-2,3-dihydro-1H-inden-1-ylamino]pyrimidin-4-yl}-amino)-2,3-dihydroxycyclopentyl]methyl sulfamate], with no more than 0.5 µM.
As to `NS(=O)(=O)OC[C@H]1C[C@@H](Nc2ccnc(C(=O)N[C@H]3CCc4ccccc43)c2)[C@H](O)[C@@H]1O` [Compound I-144, {(1R,2R,3S,4R)-4-[(2-{[(1S)-2,3-dihydro-1H-inden-1-ylamino]carbonyl}pyridin-4-yl)-amino]-2,3-dihydroxycyclopentyl}methyl sulfamate], the 50% inhibitory concentration (IC50) (bound given in μM) was greater than 10 µM.
Consider `NS(=O)(=O)OC[C@H]1C[C@@H](NC(=O)c2ccncc2)[C@H](O)[C@@H]1O` [Compound I-28, [(1R,2R,3S,4R)-2,3-dihydroxy-4-(isonicotinoylamino)cyclopentyl]methyl sulfamate], for which the IC50 is greater than 0.5 µM (bound given in nM) and less than 10 µM (bound given in μM).
`NS(=O)(=O)OC[C@@H]1C[C@@H](Oc2cc(OCc3ccc(Cl)cc3)ncn2)C[C@@H]1O` [Compound I-89, [(1S,2S,4R)-4-({6-[(4-chlorobenzyl)oxy]pyrimidin-4-yl}oxy)-2-hydroxycyclopentyl]methyl sulfamate]: the IC50 (bound given in μM) is greater than 10 µM.
For `NS(=O)(=O)OC[C@H]1C[C@@H](Nc2cc(N[C@H]3CCc4cc(F)c(F)cc43)ncn2)[C@H](O)[C@@H]1O` [Compound I-17, {(1R,2R,3S,4R)-4-[(6-{[(1S)-5,6-difluoro-2,3-dihydro-1H-inden-1-yl]amino}-pyrimidin-4-yl)amino]-2,3-dihydroxycyclopentyl}methyl sulfamate], where the note is “bound given in nM”, the IC50 was no more than 0.5 µM.
Consider `NS(=O)(=O)OC[C@@H]1C[C@@H](Nc2ncnc3[nH]c(C4CCCc5ccccc54)nc23)C[C@@H]1O` (stereo partly drawn) [Compound I-121, ((1S,2S,4R)-2-hydroxy-4-{[8-(1,2,3,4-tetrahydronaphthalen-1-yl)-9H-purin-6-yl]amino}cyclopentyl)methyl sulfamate], for which the half-inhibitory concentration (IC50) (bound given in nM) was no more than 0.5 µM.
In the case of `COc1ccc2c(c1)[C@H](Nc1cc(O[C@@H]3C[C@@H](COS(N)(=O)=O)[C@@H](O)C3)ncn1)[C@H](OC)CC2` [Compound I-148, {(1S,2S,4R)-4-[(6-{[(1S,2R)-2,7-dimethoxy-1,2,3,4-tetrahydronaphthalen-1-yl]amino}-pyrimidin-4-yl)oxy]-2-hydroxycyclopentyl}methyl sulfamate], the IC50 is greater than 0.5 µM (bound given in nM) and less than 10 µM (bound given in μM).
For `CO[C@@H]1Cc2ccccc2[C@@H]1Oc1cc(O[C@@H]2C[C@@H](COS(N)(=O)=O)[C@@H](O)C2)ncn1` [Compound I-98, {(1S,2S,4R)-2-hydroxy-4-[(6-{[(1S,2R)-2-methoxy-2,3-dihydro-1H-inden-1-yl]oxy}-pyrimidin-4-yl)oxy]cyclopentyl}methyl sulfamate], in that order: greater than 0.5 µM and less than 10 µM.
Turning to `Cc1nc(N[C@H]2CCc3ccccc32)cc(N[C@@H]2C[C@H](COS(N)(=O)=O)[C@@H](O)[C@H]2O)n1` [Compound I-18, [(1R,2R,3S,4R)-4-({6-[(1S)-2,3-dihydro-1H-inden-1-ylamino]-2-methylpyrimidin-4-yl}-amino)-2,3-dihydroxycyclopentyl]methyl sulfamate], the IC50 (bound given in nM) was no more than 0.5 µM.
As for `NS(=O)(=O)OC[C@@H]1C[C@@H](Oc2ncnc3nc(-c4cncc5ccccc45)[nH]c23)C[C@@H]1O` [Compound I-112, {(1S,2S,4R)-2-hydroxy-4-[(8-isoquinolin-4-yl-7H-purin-6-yl)oxy]cyclopentyl}methyl sulfamate], the concentration for half-maximal inhibition (IC50) (bound given in nM) was no more than 0.5 µM.
As to `NS(=O)(=O)OC[C@@H]1C[C@@H](Oc2cc(N[C@H]3CCCc4ccccc43)ncn2)C[C@@H]1O` [Compound I-40, [(1S,2S,4R)-2-hydroxy-4-({6-[(1S)-1,2,3,4-tetrahydronaphthalen-1-ylamino]pyrimidin-4-yl}oxy)cyclopentyl]methyl sulfamate], the half-inhibitory concentration (IC50) (bound given in nM) was no more than 0.5 µM.
With `NS(=O)(=O)OC[C@@H]1C[C@@H](Nc2ncnc3[nH]c(-c4ccccc4-c4ccccc4)nc23)C[C@@H]1O` [Compound I-48, {(1S,2S,4R)-4-[(8-biphenyl-2-yl-9H-purin-6-yl)amino]-2-hydroxycyclopentyl}-methyl sulfamate], the IC50 is, setting by setting: (bound given in nM) greater than 0.5 µM; (bound given in μM) less than 10 µM.
Regarding `CC1(C)C[C@H](Nc2nccc(N[C@@H]3C[C@H](COS(N)(=O)=O)[C@@H](O)[C@H]3O)n2)c2ccccc21` [Compound I-15, {(1R,2R,3S,4R)-4-[(2-{[(1S)-3,3-dimethyl-2,3-dihydro-1H-inden-1-yl]amino}-pyrimidin-4-yl)amino]-2,3-dihydroxycyclopentyl}methyl sulfamate], the half-inhibitory concentration (IC50) (bound given in nM) is no more than 0.5 µM.
The same measure, in the same setting: then `NS(=O)(=O)OC[C@H]1C[C@@H](Nc2cc(Nc3cccc4c3CCCC4)ncn2)[C@H](O)[C@@H]1O` [Compound I-118, ((1R,2R,3S,4R)-2,3-dihydroxy-4-{[6-(5,6,7,8-tetrahydronaphthalen-1-ylamino)pyrimidin-4-yl]amino}cyclopentyl)methyl sulfamate], with no more than 0.5 µM; and `NS(=O)(=O)OC[C@H]1C[C@@H](Nc2cc(N[C@H]3CCc4ccccc43)ncn2)[C@H](O)[C@@H]1O` [Compound I-29, [(1R,2R,3S,4R)-4-({6-[(1S)-2,3-dihydro-1H-inden-1-ylamino]pyrimidin-4-yl}-amino)-2,3-dihydroxycyclopentyl]methyl sulfamate], with no more than 0.5 µM; and `NS(=O)(=O)OC[C@@H]1C[C@@H](Nc2ncnc3[nH]c(Cc4ccccc4)nc23)C[C@@H]1O` [Compound I-88, {(1S,2S,4R)-4-[(8-benzyl-9H-purin-6-yl)amino]-2-hydroxycyclopentyl}methyl sulfamate], with no more than 0.5 µM.
On the same count and under the same terms, then `NS(=O)(=O)OC[C@@H]1C[C@@H](Nc2ncnc3nc(-c4cccc5c4OCC5)[nH]c23)C[C@@H]1O` [Compound I-117, ((1S,2S,4R)-4-{[8-(2,3-dihydro-1-benzofuran-7-yl)-7H-purin-6-yl]amino}-2-hydroxycyclopentyl)methyl sulfamate], with no more than 0.5 µM.
Turning to `NS(=O)(=O)OC[C@H]1C[C@@H](Nc2ccnc(NCc3ccccc3)n2)[C@H](O)[C@@H]1O` [Compound I-7, ((1R,2R,3S,4R)-4-{[2-(benzylamino)pyrimidin-4-yl]amino}-2,3-dihydroxycyclopentyl)methyl sulfamate], the IC50 (bound given in nM) was greater than 0.5 µM and the IC50 (bound given in μM) was less than 10 µM.
